The text below walks through data of patent US6632643B2, “Use of α-1,4-glucan lyase for preparation of 1,5-D-hydrofructose” (Danisco A/S, priority 1993, dated 2003).

A short description of assay [1]: Electrochemical oxygen consumption in methyl linoleate emulsion. Conditions: AF 15, 146 and 680 μM; MMb initiated; pH 5.8; 25.0 °C. How it is done: The activity of AF was investigated in a methyl linoleate emulsion as described by Jorgensen and Skibsted (Z. Lebensm. Unters. Forsch. (1993) 196: 423-429) with minor modifications: To 5.00 ml of a 1.33 mM methyl linoleate emulsion in 5.0 mM aqueous phosphate buffer with pH=5.8 and 0.2 w/w % Tween 20 as emulsifier was added AF in the following concentrations: 0, 15, 146 and 680μM. The oxidation in the system was initiated by addition of 50 μl 0.26 M metmyoglobin (MMb) final concentration 0.26 mM. Immediately after initiating the reaction the sample was injected to a thermostated (25.0±0.1° C.) 70 μl closed cell, effectively excluding diffusion of oxygen into the system. The oxygen consumption was measured by a Clark electrode, which was connected to a PC data collection program. The relative oxygen concentration (%) was registered every 30s.

A short description of assay [2]: ESR analysis of hydroxyl radical scavenging (Fenton reaction, DMPO spin trap). Conditions: H2O2 0.17 mM, Fe2+ 4.8 μM. The procedure:
Hydroxyl radicals were generated by a Fenton reaction with H2O2 (0.17 mM) and FeSO4 (4.8 μM). The generated radicals were trapped by 5,5-dimethyl-1-pyrroline N-oxide (DMPO, 9.7 mM). AF was added in concentrations of 1.3 mM and 6.3 mM. A water soluble extract of rosemary (Rosmarinus officinalis L.) was analyzed in a concentration of 0.25 mg/ml (in grams equivalent to 1.26 mM AF). Measurements were carried out at room temperature (20±1° C.) after 120 s and repeated for the same reaction mixture after 300 s with the following spectrometer settings: Center field 3475.60 G; sweep width 55 G; microwave power 20 mW; modulation frequency 100 kHz; modulation amplitude 1.01 G; receiver gain 1.00·10^5; conversion time 81.92 ms time constant 163.84 ms and sweep time 83.89 s.
The generated hydroxyl radicals were trapped by DMPO. The spin adduct gives rise to a characteristic 1:2:2:1 ESR spectrum. The peak height of the spectrum is proportional to the quantitative amount of generated spin adduct. Addition of both DMPO and AF will set up a competition between the spin trap and AF. A reduction of peak height will indicate a good scavenging activity of AF.

Assay [3] can be described thus: Induction period of 50% mayonnaise in bomb calorimeter, 80° C., pure O2. Conditions: +500 ppm. How it is done: In the test procedure the anti-oxidants were added to the mayonnaise to provide an anti-oxidant concentration in the order of about 500 ppm. The mayonnaise was then placed in a bomb calorimeter at temperature 80° C. containing pure O2. An induction period to the onset of substantial oxidation of the product is then measured.

Assay [4] can be described thus: Induction period of yogurt salad dressing with 50% oil. Conditions: 500 ppm; PF = IP with antioxidant / IP without. An excerpt: For each temperature defined as PF=IP of the oil with added antioxidant/IP of the same oil without added antioxidant
Assay [5] is described as follows: Reduction of 3,5-dinitrosalicylic acid by AF. It is filed as physicochemical.
In assay [6] the test system is α-1,4-glucan lyase isolated from M. costata. Description: Oligosaccharide specificity and AF formation by M. costata lyase, Dionex HPLC. Format: biochemical, Morchella costata. The settings on record: amylopectin, 30 and 120 min incubation, 30° C. How it is done: The specificity of α-1,4-glucan lyase isolated from M. costata for different oligosaccharides was tested. […] The oligosaccharides were dissolved in H2O at a concentration of 8 mg/ml. The enzyme assay contained 150 μl substrate G2/G3/G4/G5/G6/G7, 120 μl 0.1M MBS pH 6.3 and 30 μl purified enzyme. The reaction mixture was incubated for 60 min at 30° C. Afterwards the reaction was stopped by boiling for 3 min and 900 μl absolute ethanol was added for precipitation. After centrifugation at 20.000×g for 5 min at 4° C. the supernatant was transferred to a new eppendorf tube and lyophilized.
The freeze-dried samples were dissolved in 1000 μl H2O and were filtrated through a 0.22 μm Millipore filter before 25 μl of the sample was loaded on the Dionex HPLC.
Analyses were performed on a Dionex 4500i chromatography system consisting of a GPM-2 pump and a PED detector which was used in pulse-amperometric detection mode.
α-1,4-glucan lyase from M.costata hydrolyses starch to the end-product 1,5-anhydrofructose. The end-product was shown by HPLC, method 2. The enzyme assay contained 500 μl amylopectin (20 mg/ml, dissolved in H2O), 400 μl 0.1M MES pH 6.3 and 100 μl purified enzyme. The reaction mixture was incubated at 30° C. and the reaction was stopped by boiling after 30 or 120 min incubation. […]

With `O=C1CO[C@H](CO)[C@@H](O)[C@@H]1O` [AF, 1,5-D-anhydrofructose], the “oxygen consumption (relative oxygen concentration)” value in assay [1] is reported as “a lag-phase is observed”. Further, in assay [2] (Anhydro fructose 1.3 mM), the “Peak height [120 s]” value was found to be 2634 and the “Peak height [300 s]” value came out at 2545. In addition, in assay [2] (Anhydro fructose 6.3 mM), the “Peak height [120 s]” value amounted to 1781 and the “Peak height [300 s]” value came to 1900. For the same compound, the “IP (hours), Induction Period” value in assay [3] came to 32.0 h. The compound also had a PF in assay [4] of 1.06. In addition, the “reduction of 3,5-dinitrosalicylic acid to 3-amino-5-nitrosalicylic acid” value in assay [5] was “can easily reduce”. Further, the “inhibition of enzyme activity by the endproduct” value in assay [6] is listed as “not inhibited”.
